For data set [1], the target named is Voltage-gated inwardly rectifying potassium channel KCNH2 (Homo sapiens, UniProt Q12809).
Description: Displacement of [3H]dofetilide from hERG expressed in HEK293 cell membrane
Data set [2] has as its target hERG (KCNH2) (Homo sapiens, UniProt Q12809). In words: Inhibition of hERG-mediated tail current expressed in HEK293 cells at 30 uM by patch clamp method. It is filed as toxicity, cell-based. The following applies: HEK293 cells that express hERG. For orientation: hERG is a cardiac potassium channel; its block is linked to QT prolongation.
Data set [3] in a line: AUC (0 to infinity) in DIO mouse plasma at 10 mg/kg, po. Further details: time infinity, dose 10 mg/kg, route oral. It is filed as ADME, organism-based.
Data set [4] is described as follows: Cmax in DIO mouse plasma at 10 mg/kg, po. Format: ADME, organism-based. The arrangement: dose 10 mg/kg, route oral.
Data set [5] is described as follows: Drug level in DIO mouse plasma at 10 mg/kg, po after 12 hrs. Format: ADME, organism-based. The arrangement: dose 10 mg/kg, route oral.
The nature of data set [6]: Half life in DIO mouse plasma at 10 mg/kg, po. It is filed as ADME, organism-based. The arrangement: dose 10 mg/kg, route oral.
Data set [7] relates to Mus musculus. In words: AUC (0 to infinity) in DIO mouse brain at 10 mg/kg, po. The arrangement: time infinity, dose 10 mg/kg, route oral. Format: ADME, organism-based. The following applies: in vivo.
Data set [8] in a line: Cmax in DIO mouse brain at 10 mg/kg, po. It is filed as ADME, organism-based. The arrangement: dose 10 mg/kg, route oral.
The nature of data set [9]: Drug level in DIO mouse brain at 10 mg/kg, po after 12 hrs. It is filed as ADME, organism-based. The arrangement: dose 10 mg/kg, route oral. The settings on record: read-out: Drug uptake.
Data set [10] can be described thus: Half life in DIO mouse brain at 10 mg/kg, po. Format: ADME, organism-based. The arrangement: dose 10 mg/kg, route oral.

By IC50 is commonly meant the point on the concentration scale where inhibition reaches its midpoint. Broadly, the inhibition is the share of the control response that was lost under treatment. The low end stands for a response near the control, the high end for a response far below the control. One may read the AUC(0-inf) as the area under the concentration-time curve extrapolated to infinity. Broadly, the Cmax is the maximum level reached in the sampled fluid or tissue. As usually defined, the half-life is how long it takes for the measured level to halve. A low value points to rapid decline.

Chain of Voltage-gated inwardly rectifying potassium channel KCNH2 (Q12809 whole entry): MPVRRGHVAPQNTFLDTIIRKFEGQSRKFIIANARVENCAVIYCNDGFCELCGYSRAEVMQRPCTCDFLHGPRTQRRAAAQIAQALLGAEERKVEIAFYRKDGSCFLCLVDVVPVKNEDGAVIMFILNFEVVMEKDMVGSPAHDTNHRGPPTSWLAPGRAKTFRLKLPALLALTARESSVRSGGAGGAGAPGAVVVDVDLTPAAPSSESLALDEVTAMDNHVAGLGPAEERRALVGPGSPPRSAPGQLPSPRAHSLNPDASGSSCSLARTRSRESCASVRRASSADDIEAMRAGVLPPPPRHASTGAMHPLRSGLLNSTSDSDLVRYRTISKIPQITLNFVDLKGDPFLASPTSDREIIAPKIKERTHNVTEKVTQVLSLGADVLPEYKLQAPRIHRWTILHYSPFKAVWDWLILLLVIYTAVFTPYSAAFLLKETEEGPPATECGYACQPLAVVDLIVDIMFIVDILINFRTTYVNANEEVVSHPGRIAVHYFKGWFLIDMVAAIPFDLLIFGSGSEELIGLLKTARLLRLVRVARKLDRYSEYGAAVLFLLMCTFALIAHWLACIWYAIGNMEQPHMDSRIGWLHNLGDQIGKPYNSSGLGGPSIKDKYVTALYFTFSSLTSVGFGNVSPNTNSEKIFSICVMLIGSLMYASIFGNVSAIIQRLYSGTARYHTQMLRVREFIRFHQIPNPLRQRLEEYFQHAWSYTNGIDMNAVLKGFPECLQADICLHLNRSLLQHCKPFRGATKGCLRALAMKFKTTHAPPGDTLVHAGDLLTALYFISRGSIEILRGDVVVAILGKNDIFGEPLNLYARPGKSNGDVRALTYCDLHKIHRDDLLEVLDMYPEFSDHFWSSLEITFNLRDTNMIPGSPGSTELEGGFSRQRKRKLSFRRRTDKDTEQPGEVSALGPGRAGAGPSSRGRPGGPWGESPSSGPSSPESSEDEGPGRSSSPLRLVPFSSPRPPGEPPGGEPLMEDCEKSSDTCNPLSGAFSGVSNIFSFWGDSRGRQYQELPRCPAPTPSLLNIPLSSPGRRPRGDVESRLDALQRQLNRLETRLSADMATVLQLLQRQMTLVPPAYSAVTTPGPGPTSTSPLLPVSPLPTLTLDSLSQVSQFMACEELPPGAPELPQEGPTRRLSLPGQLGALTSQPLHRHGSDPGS
Chain of hERG (KCNH2) (Q12809 whole entry): as above

The compound `O=C(NC1CCN(Cc2ccc(OCCCN3C(=O)CSC3=O)c(F)c2)CC1)c1cc(=O)c2ccc(F)cc2o1` showed a half-maximal inhibitory concentration (IC50) in data set [1] of 8.5 µM.

Turning to `O=C(NC1CCN(Cc2ccc(C(=O)NCCN3CCCC3)c(F)c2)CC1)c1cc(=O)c2ccc(F)cc2o1`, in data set [2], the inhibition at 30 µM turned out to be 21%. The compound further came in with an AUC(0-inf) in data set [3] of 3150 ng·h/mL. Also, the Cmax amounted to 598 ng/mL in [4] and 185 ng/g in data set [8]. Also, the concentration at 12 h in data set [5] came to 38 ng/mL; in [9] it was 75 ng/g. Besides, the half-life in data set [6] was 2 h; in [10], 8 h. For the same compound, the AUC in [7] amounted to 1378 ng·h/g. Moreover, the IC50 in data set [1] was over 100 µM.

In data set [1], `O=C(NCCN1CCCC1)c1ccc(CN2CCC(NC(=O)c3cc(=O)c4ccc(F)cc4o3)CC2)c(Cl)c1` registered an IC50 of 11 µM.

In data set [1], `COc1cc(C(=O)NCCN2CCCC2)ccc1CN1CCC(NC(=O)c2cc(=O)c3ccc(F)cc3o2)CC1` returned an IC50 of 6.6 µM. This IC50 is about 1.7-fold lower than that of the compound before.

For the compound `O=C(CCN1CCCCC1)Nc1ccc(CN2CCC(NC(=O)c3cc(=O)c4ccc(F)cc4o3)CC2)cc1F`, in data set [1], the IC50 is 9.18 µM.

Turning to `COC(C)(C)CCOc1ccc(CN2CCC(NC(=O)c3cc(=O)c4ccc(F)cc4o3)CC2)cc1`, in [1], half-maximal inhibition (IC50) was put at 4.3 µM.

The record behind these values is ChEMBL document CHEMBL1139188, “Identification of diamino chromone-2-carboxamides as MCHr1 antagonists with minimal hERG channel activity” (Bioorg Med Chem Lett, 2007).
